Source: US20230159436A1, “APPLICATIONS OF AMIDE ANALOGS OF TRITERPENES IN CURES OF CANCER AND OTHER DISEASES” (Pacific Arrow Limited, priority 2021, published 2023)
Where “and” joins values, the source holds several entries; their conditions need not be identical. Equal values may be shown once.

Key:
H460 cells = test: MTT assay, lung (H460); type: cell-based, human
Method: (§1) Cells. HTB-9 (bladder), HeLa-S3 (cervix), DU145 (prostate), H460 (lung), MCF-7 (breast), K562 (leukemia), HCT116 (colon), HepG2 (liver), U2OS (bone), T98G (brain), SK-MEL-5 (Skin) and OVCAR 3, ES2 (ovary), Pancreas (Capan), Mouth (KB), Kidney (A498).
(§2) MTT Assay. The procedure for MTT assay followed the method described by Carmichael et al. (1987) with modifications. The cells were seeded into a 96-well plate at for 24 hours before drug-treatment. The cells were then exposed to the drugs for 48, 72, or 96 hours. After the drug-treatment, MTT (0.5 mg/mL) was added to cultures and incubated for an hour. The formazan (product of the reduction of tetrazolium by viable cells) formed and was dissolved with DMSO and the O.D. at 490 nm, and was measured by an ELISA reader. The MTT level of the cells before drug-treatment was also measured (T0). The % cell-growth (% G) is calculated as: % G=(TD−T0/TC−T0)×100(1), where TC or TD represents O.D. readings of control or drug-treated cells.
(§3) When T0>TD, then the cytotoxicity (LC) expressed as % of the control is calculated as: % LC=(TD−T0/T0)×100(2).
A. Cells • H460 cells are derived from a Human Lung large cell carcinoma. Cells were grew in RPMI 1640 medium supplemented with 10% FCS, antibiotics and glutamine. 5000 cells were seeded in a well (96-welled plate) for one day before drug-treatment
B. Drug Treatment: • Drug: Tig-S (stored as a 1000× stock solution in DMSO) was used. • Drug concentration used: from 0.15-20 ug/ml. • Drug-treatment was carried out for 1, 2 and 4 days. For the 4 days incubation, cells were fed with fresh medium (with drug) on day 2.
C. At the end of the drug-treatment, cytotoxic test was performed with MTT assay.

HTB-9 = test: MTT assay, bladder (HTB-9); type: cell-based
Method: as §1, §2, §3

ES2 cells = test: MTT assay, ovary (ES2); type: cell-based, human
Method: as §1, §2, §3
(§4) Experiment 30: A Comparison of Non-Cancerous with Cancer Cells: • Method: A. Cells • WI38 is a Normal Lung fibroblast. Cells were grew in MEM medium supplemented with 10% FCS, antibiotics and glutamine. 20K cells were seeded per well (96-welled plate) for one day before drug-treatment • ES2 is a Ovary Clear cells carcinoma. Cells were grew in RPMI-1640 medium supplemented with 10% FCS, antibiotics and glutamine. 10K cells were seeded per well (96-welled plate) for one day before drug-treatment.
(§5) B. Drug Treatment: • Drug: Tig-S. stored as 1000× stock solution in DMSO. • Drug concentration used: from 0.15-20 ug/ml. • Drug-treatment was carried out for 2 days (ES2) or 6 days (WI38). For the 6 days incubation, cells were fed with fresh medium (with drug) on day 3 and 5.
(§6) C. At the End of the Drug-Treatment, Cytotoxic Test was Performed with MTT Assay.

HCT116 = test: MTT assay, colon (HCT116); type: cell-based
Method: as §1, §2, §3

Capan cells = test: MTT assay, pancreas (Capan); type: cell-based, human
Method: as §1, §2, §3
A. Cells: Capan cells are derived from Human pancreas carcinoma (pancreas). Cells were grew in RPMI 1640 medium supplemented with 10% FCS, antibiotics and glutamine. […]
C. […] The percentage of drug-treated cells' growth as compared to those of the no drug control is determined.

OVCAR3 = test: MTT assay, ovary (OVCAR3); type: cell-based
Method: as §1, §2, §3

KB cells = test: MTT assay, mouth (KB); type: cell-based
Method: as §1, §2, §3

A498 = test: MTT assay, kidney (A498); type: cell-based
Method: as §1, §2, §3

WI38 cells = test: MTT assay, normal lung fibroblast (WI38); type: cell-based, human
Method: as §2, §3, §4, §5, §6

[1] = test system: cancer growth, cancer invasion, cells invasion or cancer cell invasion; test: Inhibition of cancer growth and invasion (anti-cancer activity); type: cell-based
Excerpt: The program is based on the purification methods and biological assays including the MTT assay as described in International Application No. PCT/US05/31900, filed Sep. 7, 2005, U.S. Ser. No. 11/289,142, filed Nov. 28, 2005, and U.S. Ser. No. 11/131,551, filed May 17, 2005, and PCT/US2008/002086, 1188-ALA-PCT, filed Feb. 15, 2008, Ser. No. 12/344,682, 1020-B1-US, filed Dec. 29, 2008, US009499577B2, filed Jun. 24, 2014. The details of Analysis of gene expression of ES2 cells after Y-treatment by Microarray, Data Analysis Methods and Western blot in PCT/US2008/002086, 1188-ALA-PCT, filed Feb. 15, 2008, and the cell invasion experiments methods in International Application PCT/US2010/0042240, filed Jul. 16, 2010.

K562 cells = test: Inhibition of cell cycling (flow cytometry); type: cell-based, human; details: K562, three days, 0-20 ug/ml
Method: Experiment 31: Inhibition of Cell Cycling • 1. Method: Cells: Human leukemia cells K562 cultured in RPMI1640 medium. • 2. Drug: compound from present application or Tig-S (1000× stock solution in DMSO). • 3. Start cells concentration: 500000/ml. • 4. Cells were cultured with drug (0-20 ug/ml) for total of three days. • 5. Cells were harvested by centrifugation (136×g, 6 minutes); fixed with 70% ethanol and kept in −20 C before staining. • 6. Staining: Fixed cells were stained with Propidium iodide/RNase A/0.1% Triton X-100 in PBS. • 7. Flow Cytometry Analysis was performed in Baylor Core Facility with a LSRII instrument. • 8. Analysis: Single cell was gated and cell count—FL2-Area histogram were plotted. • 9. Cell distribution in different cell-cycle phases (G0/G1, S, G2/M) was analyzed.

CC=C(C)C(=O)OCC1(C)C(O)CCC2(C)C1CCC1(C)C2CC=C2C3CC(C)(C)C(O)C(O)C3(COC(=O)C(C)=CC)C(O)CC21C (stereo not drawn) [Tig-R, 24,28-O-Tigloyl-3β,16α,21β,22α,24β,28-hexahydroxyolean-12-ene]
IC50 of lung (H460) (H460 cells): 4.8 µg/mL
IC50 of bladder (HTB-9) (HTB-9): 2.5 µg/mL
IC50 of ovary (ES2) (ES2 cells): 2.8 ug/ml and about 2.8 ug/ml
IC50 of colon (HCT116) (HCT116): 5.2 µg/mL
IC50 of pancreas (Capan) (Capan cells): 2.4 µg/mL
IC50 of ovary (OVCAR3) (OVCAR3): 5.8 µg/mL
IC50 of mouth (KB) (KB cells): 3 µg/mL
IC50 of kidney (A498) (A498): 3.5 µg/mL
IC50 in normal human fibroblast cells (WI38) (WI38 cells): 10 to 15 µg/mL
anti-cancer activity [1]: have anti cancer activities

CC=C(C)C(=O)OCC1(C)C(O)CCC2(C)C1CCC1(C)C2CC=C2C3CC(C)(C)C(OC(=O)C(C)=CC)C(O)C3(CO)C(O)CC21C (centres unmarked) [Tig-S]
IC50, inhibition of lung H460 cells growth (H460 cells; 4 days): 3 µg/mL
IC50, inhibition of H460 cells' growth (H460 cells; Experiment 32, drug-treatment 1, 2 and 4 days): 3 µg/mL
drug concentration beyond which minimum cells growth inhibition was observed (H460 cells; H460): > 5 µg/mL
dead cells (H460 cells; H460, drug concentration 20 ug/ml): No dead cell was found
IC50, inhibition of lung H460 cells growth (H460 cells; one day): 3.4 µg/mL
IC50, inhibition of ES2 cells (ES2 cells; 2 days): 0.3 µg/mL
IC100 (100% inhibition of growth, no cell lost) (ES2 cells; ES2): 0.16 to 0.3 µg/mL and 0.15 to 0.3 µg/mL
% of the control cell growth (ES2 cells; ES2, at 10 ug/ml): 10%
MTT OD, % of the original value (ES2 cells; ES2, at 10 ug/ml): 12%
IC50, inhibition of pancreas cancer (Capan) cells' growth (Capan cells; drug-treatment 3 days): about 1 ug/ml
IC50, inhibition of ovarian cancer (OCAR3) cells' growth (OVCAR3): 2.5 µg/mL
IC50 of ovary (OVCAR3) (OVCAR3): 6.5
IC50, inhibition of WI38 cells (WI38 cells; 6 days): 1.5 µg/mL
% of the control cell growth (WI38 cells; WI38, at 10 ug/ml): about 55%
MTT OD, % of the original value (WI38 cells; WI38, at 20 ug/ml): about 90%
cell lost or dead (WI38 cells; WI38, at 20 ug/ml): about 10%
cells died (WI38 cells; WI38, with 10 ug/ml): 10%
effect on cell cycle (K562 cells): arrested in the S-phase
anti-cancer activity [1]: have anti cancer activities
